The numbers were not newly measured in patent EP4729553A1, “BLOCK POLYMER, AND COLORING MATERIAL DISPERSION AND INK COMPOSITION USING SAME” (Mikuni Shikiso Kabushiki Kaisha, priority 2023, dated 2024), which cites them from elsewhere.

The conditions of the data set: monomer, trade product data.

For “ethoxylated o-phenylphenol acrylate [A-LEN10]”, the LogP is given as 3.98.
